The values that follow come from patent publication US20170114128A1, “USE OF TGF-BETA ANTAGONISTS OF TREAT TYPE-2 DIABETES” (ALBERT EINSTEIN COLLEGE OF MEDICINE, INC., priority 2014, published 2017).

In one data set the test system is normal C57BL/6 mice. Put plainly: Intra-third ventricle injection of TGF-β1, GTT, ITT, food intake and body weight. It is filed as in vivo. How it is done:
(§1) Brain TGF-β excess impairs glucose tolerance: To study the metabolic effects of brain TGF-β excess, a pharmacological approach was first used by which TGF-β was delivered into the hypothalamic third ventricle of normal C57BL/6 mice via pre-implanted cannula. To optimize the dosage, different doses of TGF-β1 (0, 0.5, 1.0, and 4.0 ng) were injected, and TGF-β1 concentrations measured in the CSF at various time points post-injection. […] Based on this condition, overnight-fasted mice were given intra-third ventricle injections of TGF-β1 in these doses, one injection at night after food was removed, and the second injection in the following morning at 4 hours prior to glucose tolerance test (GTT). […] In sum, a pharmacological induction of brain TGF-β excess can acutely cause pre-diabetic changes including glucose intolerance and insulin resistance.
Animals. Tgfb1^lox/lox mice, Tgfbr2^lox/lox mice, Tgfb1^+/− mice, GFAP-Cre mice, and T1r4^−/− mice on C57BL/6 were obtained from Jackson (32,56-59) and continued to be maintained on C57BL/6. CMV-lox-stop-lox-Tgfb1 mice(30) obtained from Jackson were backcrossed into C57BL/6. POMC-Cre mice maintained on C57BL/6 were used in our previous research (20,60). All mice were housed in standard, pathogen-free animal facility with 12 h/12 h light and darkness cycles, and adult male mice were used in experiments of this work. Mice were maintained on normal chow since weaning, and for some experiments involving HFD feeding, a HFD (45% kcal fat, Research Diets, Inc.) was used when mice were two to three months old. Food intake and body weight of mice were measured using a laboratory scale. GTT was performed in mice through intraperitoneal (i.p.) injection of glucose at 2 g/kg body weight. ITT was performed in mice through i.p. injection of human recombinant insulin (Nova Nordisk) at the dose of 0.7 U/kg body weight. Blood glucose levels during GTT and ITT were measured with LifeScan® blood glucose monitoring system. All procedures were approved by the Institutional Animal Care and Use Committee of Albert Einstein College of Medicine.
Brain injection. […]

Data set [1] can be described thus: TGF-β1 concentrations in CSF and blood after third-ventricle injection. It is filed as in vivo, mice. How it is done:
as §1
Protein, mRNA and peptide analyses. Hypothalami were isolated as previously described (14). Tissue lysis, SDS/PAGE and Western blotting were performed as previously described (19). Primary antibodies in Western blots included anti-IκBα (Santa Cruz, #SC847, 1:500), anti-p-TAK1 (Cell Signaling, #4531, 1:1000), anti-p-IκBα (Cell Signaling, #2859, 1:1000), anti-RelA (Cell Signaling, #3039, 1:1000), anti-p-RelA (Cell Signaling, #4764, 1:1000), and anti-β-actin (Cell Signaling, #4967S, 1:1000), and secondary antibodies were HRP-conjugated anti-rabbit or goat antibody (Pierce, 1:2000). Quantification of Western blots was processed with Image J. Total RNA was extracted from hypothalamic tissue using TRIzol® (Invitrogen), and cDNA was synthesized using M-MLV RT System (Promega). Using SYBR® Green PCR Master Mix (Applied Biosystems), expression levels of target genes were analyzed via PCR amplification and quantification. GAPDH or TBP mRNA levels were used for normalization. […] Serum and CSF TGF-β content were measured using TGF-β ELISA kit (R&D Systems).

Another data set relates to hypothalamic GT1-7 cells. Nature of the data set: IκBα mRNA levels in GT1-7 cells after TGF-β1 treatment. Type of data set: cell-based. To be noted: GT1-7 cells, TGF-β1 10 ng/ml. The source says:
TGF-β degrades IκBα mRNA to atypically activate NF-κB: RNA SGs/PBs have the function to degrade mRNAs by targeting the AU-rich element (AUE) at the 3′ untranslated region (UTR) (36-38). […] This information led to the suspicion that TGF-β could work to degrade IκBα mRNA. […] To test if TGF-β induced IκBα mRNA decay is accountable for the glucose metabolism disorder, an experiment was designed to study if the pro-diabetic effect of brain TGF-β excess could be reversed through directly increasing hypothalamic IκBα mRNA. Using an approach which was established previously (23), a lentiviral system was employed to deliver exogenous Iκbα mRNA into the mediobasal hypothalamus of chow-fed C57BL/6 mice, and indeed, this lentivirus-delivered Iκbα mRNA prevented TGF-β1 injection from activating hypothalamic NF-κB (FIG. 5f). Metabolic analysis confirmed that this treatment attenuated the effect of TGF-β1 from impairing insulin-dependent glucose control (FIG. 5g).
Cell culture. GT1-7 cells were cultured as described previously (14). Briefly, GT1-7 cells were maintained in Dulbecco's Modified Eagle's Medium (Invitrogen) with 10% fetal bovine serum (Hyclone) and penicillin/streptomycin (Invitrogen), at 37° C. in a humidified atmosphere containing 5% CO2. Cells were fasted in serum-free medium for an overnight period, and then were subjected to TGF-β1 treatment at the indicated dose and time course.

“TGF-β1: transforming growth factor-β1 (Sigma), cytokine dissolved in artificial cerebrospinal fluid for third-ventricle injection”: the “glucose intolerance effect, comparison of doses” value in the data set with normal C57BL/6 mice (4 ng) is listed as “slightly strongest”. Besides, the “sensitivity of insulin in lowing blood glucose (ITT)” value with normal C57BL/6 mice (4 ng, third ventricle) was “significantly dampened”. Further, the “glucose tolerance in GTT” value in the data set on normal C57BL/6 mice (each dose (0.5, 1.0, 4.0 ng), two intra-third ventricle injections, overnight-fasted) was “led to glucose intolerance”. Further, in data set [1] (60 min post-injection), the “CSF TGF-β1 concentration relative to basal concentration” value is given as “roughly 2 fold”. Further, the “blood TGF-β1 concentration” value in data set [1] (doses 0.5, 1.0, 4.0 ng in third ventricle) is “None of these doses significantly increased”. Also, the “time of peak increase of CSF TGF-β1 concentration” value in data set [1] (post-injection, third ventricle, 0.5-4.0 ng, dose-dependent) is listed as 15 min. For the same substance, the “IκBα mRNA levels” value in the data set on hypothalamic GT1-7 cells is “notably decreased”.
